# Source: PubChem BioAssay (NCI)
#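 Following 48 hours of exposure in 96-well plates, responses at five concentrations were used to interpolate endpoints linearly. The concentration for 50% growth inhibition is given as GI50. TGI denotes the concentration required for complete inhibition of growth.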
# Legend:
# Assay in all cases: growth of human tumour cells (NCI), 48 h
# [1] = test system: 786-0 renal
# [2] = test system: A498 renal
# [3] = test system: A549 NSCLC
# [4] = test system: ACHN renal
# [5] = test system: BT-549 breast
# [6] = test system: CAKI-1 renal
# [7] = test system: CCRF-CEM leukemia
# [8] = test system: COLO 205 colon
# [9] = test system: DU-145 prostate
# [10] = test system: HCC-2998 colon
# [11] = test system: HCT-116 colon
# [12] = test system: HCT-15 colon
# [13] = test system: HL-60(TB) leukemia
# [14] = test system: HOP-62 NSCLC
# [15] = test system: HOP-92 NSCLC
# [16] = test system: HS 578T breast
# [17] = test system: HT29 colon
# [18] = test system: IGROV1 ovarian
# [19] = test system: K-562 leukemia
# [20] = test system: KM12 colon
# [21] = test system: M14 melanoma
# [22] = test system: MALME-3M melanoma
# [23] = test system: MCF7 breast
# [24] = test system: MDA-MB-231 breast
# [25] = test system: MDA-MB-435
# [26] = test system: MOLT-4 leukemia
# [27] = test system: NCI-H226 lung
# [28] = test system: NCI-H23 lung
# [29] = test system: NCI-H460 lung
# [30] = test system: NCI/ADR-RES ovarian
# [31] = test system: OVCAR-3 ovarian
# [32] = test system: OVCAR-4 ovarian
# [33] = test system: OVCAR-5 ovarian
# [34] = test system: OVCAR-8 ovarian
# [35] = test system: PC-3 prostate
# [36] = test system: RPMI-8226 leukemia
# [37] = test system: RXF 393 renal
# [38] = test system: SF-268 CNS
# [39] = test system: SF-295 CNS
# [40] = test system: SF-539 CNS
# [41] = test system: SK-MEL-2 melanoma
# [42] = test system: SK-MEL-28 melanoma
# [43] = test system: SK-MEL-5 melanoma
# [44] = test system: SK-OV-3 ovarian
# [45] = test system: SN12C renal
# [46] = test system: SNB-19 CNS
# [47] = test system: SNB-75 CNS
# [48] = test system: SR leukemia
# [49] = test system: SW-620 colon
# [50] = test system: T-47D breast
# [51] = test system: TK-10 renal
# [52] = test system: U251 CNS
# [53] = test system: UACC-257 melanoma
# [54] = test system: UACC-62 melanoma
# [55] = test system: UO-31 renal
smiles,measurement,setting,value
C[C@]12CC[C@@H]3c4ccc(O)cc4CC[C@H]3[C@@H]1CC[C@@H]2NS(=O)(=O)c1cccc(C(F)(F)F)c1,GI50,[1],3.06 µM
same,TGI,[1],8.95 µM
same,GI50,[2],2.7 µM
same,TGI,[2],8.75 µM
same,GI50,[3],3.23 µM
same,TGI,[3],12.8 µM
same,GI50,[4],3.2 µM
same,TGI,[4],11.4 µM
same,GI50,[5],2.7 µM
same,TGI,[5],7.48 µM
same,GI50,[6],3.23 µM
same,TGI,[6],11.8 µM
same,GI50,[7],3.46 µM
same,TGI,[7],24.1 µM
same,GI50,[8],2.12 µM
same,TGI,[8],4.13 µM
same,GI50,[9],5.83 µM
same,TGI,[9],18.4 µM
same,GI50,[10],4.58 µM
same,TGI,[10],17.9 µM
same,GI50,[11],2.61 µM
same,TGI,[11],7.12 µM
same,GI50,[12],2.17 µM
same,TGI,[12],5.23 µM
same,GI50,[13],3.54 µM
same,TGI,[13],15.5 µM
same,GI50,[14],5.18 µM
same,TGI,[14],17.9 µM
same,GI50,[15],1.94 µM
same,TGI,[15],7.81 µM
same,GI50,[16],3.24 µM
same,TGI,[16],15.6 µM
same,GI50,[17],3.39 µM
same,TGI,[17],10.2 µM
same,GI50,[18],5.19 µM
same,TGI,[18],18 µM
same,GI50,[19],3.63 µM
same,TGI,[19],15.3 µM
same,GI50,[20],3.4 µM
same,TGI,[20],11.8 µM
same,GI50,[21],3.88 µM
same,TGI,[21],13.9 µM
same,GI50,[22],2.83 µM
same,TGI,[22],8.65 µM
same,GI50,[23],2.72 µM
same,TGI,[23],8.49 µM
same,GI50,[24],2.39 µM
same,TGI,[24],6.77 µM
same,GI50,[25],2.8 µM
same,TGI,[25],8.62 µM
same,GI50,[26],3.2 µM
same,TGI,[26],16.7 µM
same,GI50,[27],3.88 µM
same,TGI,[27],17.2 µM
same,GI50,[28],3.76 µM
same,TGI,[28],15.8 µM
same,GI50,[29],2.6 µM
same,TGI,[29],6.79 µM
same,GI50,[30],3.73 µM
same,TGI,[30],16.9 µM
same,GI50,[31],2.95 µM
same,TGI,[31],8.6 µM
same,GI50,[32],2.95 µM
same,TGI,[32],12.4 µM
same,GI50,[33],4.54 µM
same,TGI,[33],17.4 µM
same,GI50,[34],4.65 µM
same,TGI,[34],19.3 µM
same,GI50,[35],2.78 µM
same,TGI,[35],13.9 µM
same,GI50,[36],3.26 µM
same,TGI,[36],14.2 µM
same,GI50,[37],2.58 µM
same,TGI,[37],6.65 µM
same,GI50,[38],4.52 µM
same,TGI,[38],18.5 µM
same,GI50,[39],1.86 µM
same,TGI,[39],3.63 µM
same,GI50,[40],4.21 µM
same,TGI,[40],16.2 µM
same,GI50,[41],3.7 µM
same,TGI,[41],13 µM
same,GI50,[42],5.87 µM
same,TGI,[42],19.1 µM
same,GI50,[43],1.79 µM
same,TGI,[43],3.29 µM
same,GI50,[44],4.78 µM
same,TGI,[44],15.3 µM
same,GI50,[45],2.19 µM
same,TGI,[45],5.97 µM
same,GI50,[46],4.64 µM
same,TGI,[46],18.2 µM
same,GI50,[47],2.98 µM
same,TGI,[47],15.5 µM
same,GI50,[48],3.98 µM
same,TGI,[48],27.2 µM
same,GI50,[49],3.72 µM
same,TGI,[49],15.6 µM
same,GI50,[50],3.65 µM
same,TGI,[50],13.4 µM
same,GI50,[51],4.05 µM
same,TGI,[51],13.3 µM
same,GI50,[52],3.75 µM
same,TGI,[52],14.3 µM
same,GI50,[53],3.54 µM
same,TGI,[53],15.7 µM
same,GI50,[54],2.66 µM
same,TGI,[54],10.7 µM
same,GI50,[55],2.25 µM
same,TGI,[55],11.6 µM
